In ChEMBL document CHEMBL4715750, “Synthesis and in vitro, ex-vivo and in vivo activity of hybrid compounds linking a potent ROS and RNS scavenger activity with diverse substrates addressed to pass across the blood-brain barrier” (Eur J Med Chem, 2016):

Experiments:
[1] = Cytotoxicity against human SH-SY5Y cells assessed as cell viability at 0.8 uM measured after 2 hrs by MTT assay relative to control; type: cell-based; conditions: read-out: Activity
[2] = Cytotoxicity against human SH-SY5Y cells assessed as cell viability at 100 uM measured after 24 hrs by MTT assay relative to control; type: cell-based; conditions: read-out: Activity
[3] = Cytotoxicity against human SH-SY5Y cells assessed as cell viability at 25 uM measured after 2 hrs by MTT assay relative to control; type: cell-based; conditions: read-out: Activity
[4] = Permeability of the compound at pH 7.4 by PAMPA-BBB assay; type: ADME; conditions: read-out: permeability
[5] = Cytotoxicity against human SH-SY5Y cells assessed as cell viability at 3.1 uM measured after 2 hrs by MTT assay relative to control; type: cell-based; conditions: read-out: Activity
[6] = Cytotoxicity against human SH-SY5Y cells assessed as cell viability at 12.5 uM measured after 2 hrs by MTT assay relative to control; type: cell-based; conditions: read-out: Activity
SH-SY5Y = test: Antioxidant activity in human SH-SY5Y cells assessed as inhibition of H2O2-induced DCFH oxidation measured after 1 hr by DCFH-DA dye based fluorescence assay; type: functional, cell-based
[7] = Cytotoxicity against human SH-SY5Y cells assessed as cell viability at 3.1 uM measured after 24 hrs by MTT assay relative to control; type: cell-based; conditions: read-out: Activity
[8] = Cytotoxicity against human SH-SY5Y cells assessed as cell viability at 1.6 uM measured after 2 hrs by MTT assay relative to control; type: cell-based; conditions: read-out: Activity
[9] = Cytotoxicity against human SH-SY5Y cells assessed as cell viability at 50 uM measured after 2 hrs by MTT assay relative to control; type: cell-based; conditions: read-out: Activity
[10] = Antioxidant activity assessed as DPPH radical scavenging activity incubated for 60 mins in absence of light; type: functional
[11] = Cytotoxicity against human SH-SY5Y cells assessed as cell viability at 6.3 uM measured after 2 hrs by MTT assay relative to control; type: cell-based; conditions: read-out: Activity
[12] = Retention time in Sprague-Dawley rat brain by HPLC based fluorimetric analysis; type: ADME, tissue-based
[13] = Cytotoxicity against human SH-SY5Y cells assessed as cell viability at 25 uM measured after 24 hrs by MTT assay relative to control; type: cell-based; conditions: read-out: Activity
[14] = Retention time in Sprague-Dawley rat plasma by HPLC based fluorimetric analysis; type: ADME, cell-free
[15] = Cytotoxicity against human SH-SY5Y cells assessed as cell viability at 12.5 uM measured after 24 hrs by MTT assay relative to control; type: cell-based; conditions: read-out: Activity
[16] = Drug concentration in Sprague-Dawley rat brain at 0.2 mmol/Kg, ip measured after 1 hr by HPLC based fluorimetric analysis; type: ADME, organism-based; conditions: in vivo
[17] = Drug concentration in Sprague-Dawley rat plasma at 0.2 mmol/Kg, ip measured after 1 hr by HPLC based fluorimetric analysis; type: ADME, organism-based
[18] = Cytotoxicity against human SH-SY5Y cells assessed as cell viability at 6.3 uM measured after 24 hrs by MTT assay relative to control; type: cell-based; conditions: read-out: Activity
[19] = Cytotoxicity against human SH-SY5Y cells assessed as cell viability at 1.6 uM measured after 24 hrs by MTT assay relative to control; type: cell-based; conditions: read-out: Activity
[20] = Cytotoxicity against human SH-SY5Y cells assessed as cell viability at 100 uM measured after 2 hrs by MTT assay relative to control; type: cell-based; conditions: read-out: Activity
[21] = Cytotoxicity against human SH-SY5Y cells assessed as cell viability at 0.8 uM measured after 24 hrs by MTT assay relative to control; type: cell-based; conditions: read-out: Activity
[22] = Cytotoxicity against human SH-SY5Y cells assessed as cell viability at 50 uM measured after 24 hrs by MTT assay relative to control; type: cell-based; conditions: read-out: Activity

Compound: COc1cc2c(cc1O)CCC(C)(C)O2
- viability at 2 h, 0.8 µM [1]: 98.5%
- viability at 24 h, 100 µM [2]: 96.1%
- viability at 2 h, 25 µM [3]: 90.6%
- Papp [4]: 0.25 ×10⁻⁶ cm/s
- viability at 2 h, 3.1 µM [5]: 85.6%
- viability at 2 h, 12.5 µM [6]: 91.5%
- Activity (SH-SY5Y): Dose-dependent effect
- IC50 (SH-SY5Y): 21.7 µM
- viability at 24 h, 3.1 µM [7]: 99.4%
- viability at 2 h, 1.6 µM [8]: 94.1%
- viability at 2 h, 50 µM [9]: 86.8%
- IC50 [10]: 14.1 µM
- viability at 2 h, 6.3 µM [11]: 92.2%
- Retention_time [12]: 8 min
- viability at 24 h, 25 µM [13]: 93.2%
- Retention_time [14]: 8 min
- viability at 24 h, 12.5 µM [15]: 100%
- Ct [16]: 4 nmol/g
- concentration at 1 h [17]: 2400 nM
- viability at 24 h, 6.3 µM [18]: 98%
- viability at 24 h, 1.6 µM [19]: 93.9%
- viability at 2 h, 100 µM [20]: 66.9%
- viability at 24 h, 0.8 µM [21]: 91.1%
- viability at 24 h, 50 µM [22]: 95.2%
